Measurements reported in publication PMC6284057, “Combined Antibacterial Effects of Goat Cathelicidins With Different Mechanisms of Action” (Frontiers in Microbiology, 2018).
≈ marks a conversion by molar mass, not a printed value. Like-named read-outs stand apart in the source and are kept apart here.

Experiments:
[1] = tested on: all the cells tested (hRBC, HEF, HEK293T); test: Hemolysis and cytotoxicity assay; format: cell-based, human; conditions: positive control
Protocol: Hemolytic activity of the peptides was tested against the fresh suspension of human red blood cells (hRBC) using the hemoglobin release assay as described previously ([Panteleev et al., 2016]). Three experiments were performed with the hRBC from blood samples obtained from independent donors. The obtained data were represented as average means with standard deviations. The cytotoxicity of the peptides against HEK293T (transformed human embryonic kidney cells) and HEF (human embryonic fibroblasts) cell lines was studied using the colorimetric 3-(4,5-dimethylthiazol-2-yl)-2,5-diphenyltetrazolium bromide (MTT) dye reduction assay according to ([Panteleev and Ovchinnikova, 2017]). Three independent experiments were performed for each peptide. Half maximal inhibitory concentration (IC50) values were estimated as described previously ([Kuzmin et al., 2018]).

S. aureus 209P = format: cell-based, Staphylococcus aureus; conditions: Mueller-Hinton broth, 10^6 CFU/ml, 0.1% BSA, 37°C, 24 h, median of at least 3 experiments
Protocol: (§1) Antimicrobial assay was performed as described previously ([Panteleev et al., 2017b]). Briefly, mid-log phase bacterial test cultures were diluted with the 2× Mueller-Hinton broth (MH, Sigma) supplemented with 1.8% NaCl or without it so that to reach a final cell concentration of 10^6 CFU/ml. 50 μl aliquots of the obtained bacterial suspension were added to 50 μl of the peptide solutions serially diluted with 0.1% water solution of bovine serum albumin (BSA) in 96-well flat-bottom polystyrene microplates (Eppendorf #0030730011). After incubation at 37°C and 900 rpm for 24 h the minimum inhibitory concentrations (MIC) were determined as the lowest peptide concentrations that prevented growth of a test microorganism observed as visible turbidity. The results were expressed as the median values determined on the basis of at least three independent experiments performed in triplicate.

P. aeruginosa PAO1 = format: cell-based, Pseudomonas aeruginosa; conditions: Mueller-Hinton broth, 10^6 CFU/ml, 0.1% BSA, 37°C, 24 h, median of at least 3 experiments
Protocol: as §1

M. luteus B-1314 = format: cell-based, Micrococcus luteus; conditions: Mueller-Hinton broth, 10^6 CFU/ml, peptide diluted in 0.1% BSA, 37°C, 24 h, median of at least 3 experiments in triplicate
Protocol: as §1

[2] = tested on: A. baumannii (XDR CI 2675); test: microbe, parasite or virus in culture; format: cell-based, Acinetobacter baumannii; conditions: read-out: Minimum inhibitory concentration
Protocol: as §1

K. pneumoniae (CI 287) = format: cell-based, Klebsiella pneumoniae; conditions: Mueller-Hinton broth, 10^6 CFU/ml, 0.1% BSA, 37°C, 24 h, median of at least 3 experiments
Protocol: as §1

B. subtilis B-886 = format: cell-based, Bacillus subtilis; conditions: Mueller-Hinton broth, 10^6 CFU/ml, 0.1% BSA, 37°C, 24 h, median of at least 3 experiments
Protocol: as §1

E. coli C600 = format: cell-based, Escherichia coli; conditions: Mueller-Hinton broth, 10^6 CFU/ml, 0.1% BSA, 37°C, 24 h, median of at least 3 experiments
Protocol: as §1

E. coli ML-35p = format: cell-based, Escherichia coli; conditions: Mueller-Hinton broth, 10^6 CFU/ml, 0.1% BSA, 37°C, 24 h, median of at least 3 experiments
Protocol: as §1

E. cloacae (XDR CI 4172) = test: microbe, parasite or virus in culture; format: cell-based, Enterobacter cloacae; conditions: Enterobacter cloacae; Table S2, XDR clinical isolate; NaCl content of medium not stated; read-out: Minimum inhibitory concentration
Protocol: as §1

[3] = tested on: P. mirabilis (XDR CI 3423); test: microbe, parasite or virus in culture; format: cell-based, Proteus mirabilis; conditions: Proteus mirabilis; Table S2, XDR clinical isolate; NaCl content of medium not stated; read-out: Minimum inhibitory concentration
Protocol: as §1

[4] = tested on: K. pneumoniae (XDR CI 1056); test: microbe, parasite or virus in culture; format: cell-based, Klebsiella pneumoniae; conditions: Klebsiella pneumoniae; Table S2, XDR clinical isolate; NaCl content of medium not stated; read-out: Minimum inhibitory concentration
Protocol: as §1

[5] = tested on: P. aeruginosa (XDR CI 1049); test: microbe, parasite or virus in culture; format: cell-based, Pseudomonas aeruginosa; conditions: Pseudomonas aeruginosa; Table S2, XDR clinical isolate; NaCl content of medium not stated; read-out: Minimum inhibitory concentration
Protocol: as §1

E. coli (XDR CI 1057) = test: microbe, parasite or virus in culture; format: cell-based, Escherichia coli; conditions: Escherichia coli, read-out: Minimum inhibitory concentration
Protocol: as §1

[6] = tested on: in vitro translation of EGFP, E. coli BL21 Star (DE3) cell lysate; test: Cell-free protein expression assay (EGFP); format: biochemical, Escherichia coli; conditions: EGFP fluorescence, 1.5 h, 30°C
Protocol: The cell lysate used for translation inhibition assay was prepared using the E. coli BL21 Star (DE3) cell culture grown at 30°C in the 2x YTPG liquid medium (1% yeast extract, 1.6% tryptone, 0.5% NaCl, 22 mM NaH2PO4, 40 mM Na2HPO4, 0.1 M glucose). The chromosome of DE3 strains contains a gene encoding T7 RNA polymerase under control of the lacUV5 promoter. The bacterial culture was grown to OD600 0.8–1.0, then T7 RNA polymerase gene was induced by adding 0.2 mM IPTG. Bacteria were harvested at OD600 5.0–6.0 by centrifugation (3000 g, 30 min, 4°C). The bacterial pellet was washed three times by suspending it in four volumes of wash buffer (10 mM Tris-acetate buffer, pH 8.2, 60 mM potassium glutamate, 14 mM magnesium acetate, 1 mM DTT), then resuspended in one volume of the same buffer (1 ml per 1 g of wet cell mass) and disrupted by sonication at 5–15°C. The total cell lysate was centrifuged at 15000 g (30 min, 4°C). The supernatant was split into aliquots and stored at -70°C.
In order to investigate the effect of AMPs on the translation process, the peptides were added to a cell-free protein synthesis (CFPS) reaction mix with a plasmid encoding EGFP variant (F64L, S65T, Q80R, F99S, M153T, and V163A) under a control of the T7 promoter. The reaction mix consisted of the following components: 1.2 mM ATP, 0.8 mM UTP, 0.8 mM GTP, 0.8 mM CTP, 2 mM of each of 20 proteinogenic amino acids, 1.5 mM spermidine, 1 mM putrescine dihydrochloride, 0.06647 mM calcium folinate, 170 ng/ml tRNA from the E. coli MRE 600 strain, 0.33 mM NAD, 120 mM HEPES-KOH (pH 8.0), 10 mM ammonium glutamate, 175 mM potassium glutamate, 60 mM glucose, 15 mM magnesium glutamate, 2% PEG 8000, 25% E. coli BL21 Star (DE3) cell lysate, 10 ng/μl plasmid DNA. The reaction volume was 50 μl. […] Fluorescence of the sample without inhibitor was set as the 100% value. […] Fluorescence of the synthesized EGFP was measured with the microplate reader AF2200 (λExc = 488 nm, λEm = 510 nm). […] IC50 values were determined by interpolation from non-linear regression curves using the GraphPad Prism 6.0 software.

`CC[C@H](C)[C@H](NC(=O)CN)C(=O)NCC(=O)N[C@@H](C)C(=O)N[C@H](C(=O)N[C@@H](CC(C)C)C(=O)N[C@@H](CCCCN)C(=O)N[C@H](C(=O)N[C@@H](CC(C)C)C(=O)N[C@H](C(=O)N[C@H](C(=O)NCC(=O)N[C@@H](CC(C)C)C(=O)N1CCC[C@H]1C(=O)N[C@@H](C)C(=O)N[C@@H](CC(C)C)C(=O)N[C@H](C(=O)N[C@@H](CO)C(=O)N[C@@H](Cc1c[nH]c2ccccc12)C(=O)N[C@H](C(=O)N[C@@H](CCCCN)C(=O)N[C@@H](CCCNC(=N)N)C(=O)N[C@@H](CCCCN)C(=O)N[C@@H](CCCNC(=N)N)C(=O)N[C@@H](CCC(N)=O)C(=O)N[C@@H](CCC(N)=O)C(N)=O)[C@@H](C)CC)[C@@H](C)CC)[C@@H](C)O)[C@@H](C)O)C(C)C)C(C)C` [Melittin, reference compound] was tested, and the “concentrations that completely damaged all the cells tested” value [1] was < 2.5 µM, the Minimum inhibitory concentration (S. aureus 209P; 0.9% NaCl) was 16 µM (≈ 45.5 µg/mL) and the Minimum inhibitory concentration (S. aureus 209P; Without NaCl) was 2 µM (≈ 5.69 µg/mL). The Minimum inhibitory concentration (P. aeruginosa PAO1; 0.9% NaCl) was 8 µM (≈ 22.8 µg/mL), the Minimum inhibitory concentration (P. aeruginosa PAO1; Without NaCl) was 4 µM (≈ 11.4 µg/mL) and the Minimum inhibitory concentration (M. luteus B-1314; 0.9% NaCl) was 0.5 µM (≈ 1.42 µg/mL). The Minimum inhibitory concentration (M. luteus B-1314; Without NaCl) was 0.25 µM (≈ 0.712 µg/mL), the MIC ([2]; 0.9% NaCl, Mueller-Hinton broth, 10^6 CFU/ml, 0.1% BSA, 37°C, 24 h, median of at least 3 experiments) was 8 µM (≈ 22.8 µg/mL) and the MIC ([2]; Without NaCl, Mueller-Hinton broth, 10^6 CFU/ml, 0.1% BSA, 37°C, 24 h, median of at least 3 experiments) was 2 µM (≈ 5.69 µg/mL). It also gave a Minimum inhibitory concentration (K. pneumoniae (CI 287); 0.9% NaCl) of 16 µM (≈ 45.5 µg/mL), a Minimum inhibitory concentration (K. pneumoniae (CI 287); Without NaCl) of 4 µM (≈ 11.4 µg/mL) and a Minimum inhibitory concentration (B. subtilis B-886; 0.9% NaCl) of 0.5 µM (≈ 1.42 µg/mL). The Minimum inhibitory concentration (B. subtilis B-886; Without NaCl) was 0.5 µM (≈ 1.42 µg/mL), the Minimum inhibitory concentration (E. coli C600; 0.9% NaCl) was 8 µM (≈ 22.8 µg/mL) and the Minimum inhibitory concentration (E. coli C600; Without NaCl) was 4 µM (≈ 11.4 µg/mL). For the same molecule, the Minimum inhibitory concentration (E. coli ML-35p; 0.9% NaCl) was 8 µM (≈ 22.8 µg/mL) and the Minimum inhibitory concentration (E. coli ML-35p; Without NaCl) was 2 µM (≈ 5.69 µg/mL).
In the case of `C[C@@H](O)[C@H]1C(=O)N2C(C(=O)O)=C(S[C@@H]3CN[C@H](C(=O)N(C)C)C3)[C@H](C)[C@H]12` [Meropenem, reference compound], the MIC (E. cloacae (XDR CI 4172)) is reported as 0.5 µM (≈ 0.192 µg/mL), the MIC [3] is reported as > 128 µM and the MIC [4] is reported as 16 µM (≈ 6.14 µg/mL). It also gave an MIC ([2]; Acinetobacter baumannii, Table S2, XDR clinical isolate, NaCl content of medium not stated) of 0.5 µM (≈ 0.192 µg/mL), an MIC [5] of 64 µM (≈ 24.5 µg/mL) and an MIC (E. coli (XDR CI 1057)) of 0.125 µM (≈ 0.0479 µg/mL).
For `[H]/N=C(/N)N[C@H]1[C@H](O)[C@@H](O)[C@H](O[C@@H]2O[C@@H](C)[C@](O)(C=O)[C@H]2O[C@@H]2O[C@@H](CO)[C@H](O)[C@@H](O)[C@@H]2NC)[C@@H](N/C(N)=N\[H])[C@@H]1O` [streptomycin], the “concentration of full inhibition of in vitro protein synthesis” value [6] was > 1 µM and the IC50 ([6]; at least 3 independent experiments, read-out: IC50, inhibition of in vitro protein synthesis) was 200 nM.
With KWCFRVCYRGICYRRCR [Tachyplesin-1] the “inhibition of protein biosynthesis, in words” value [6] was “comparable level of inhibition”.
